{"source": "patent US20070037882A1", "about": "“Remedy for cerebral neurodegenerative diseases using ppar agonist” (Astellas Pharma Inc., priority 2003, published 2007)", "key": {"[1]": {"test_system": "rat cerebral infarction model", "assay": "Rat cerebral infarction model (middle cerebral artery-occluded reperfusion, Koizumi method)", "assay_type": "in vivo", "conditions": "for Lesions with cerebral infarction (area in % of damaged site in the 6 sections), Cortex / Lesions with cerebral infarction (area in % of damaged site in the 6 sections), Subcortex / Lesions with cerebral infarction (area in % of damaged site in the 6 sections), Total: 24 h after reperfusion; for action to reduce cerebral infarction (in words): rat cerebral infarction model"}, "SH-SY5Y cells [2]": {"test_system": "SH-SY5Y cells", "assay": "Thapsigargin-induced cellular death model, viable cells by MTT assay", "assay_type": "cell-based, human", "conditions": "for suppression of thapsigargin-induced cellular death (in words): SH-SY5Y; for MTT assay A490: thapsigargin + (100 nM), 24 h", "method": "SH-SY5Y cells were plated on a 96-well plate (70,000 cell/well in 100 μl DMEM low glucose 10% fetal bovine serum) for overnight culturing, from which the culture medium was removed with an aspirator. Then, DMEM without serum was added at 50 μl/well. […] 2 hours later, DMEM without serum containing 600 nM thapsigargin was added at 20 μl/well. (Thapsigargin to a final 100 nM concentration) (For a control, DMEM without serum alone was added.) 24 hours later, the viable cell count was calculated from the absorbance at 490 nm, using Celltiter 96 Aqueous one solution cell proliferaion assay kit (Promega)."}, "SH-SY5Y cells [3]": {"test_system": "SH-SY5Y cells", "assay": "Staurosporine-induced cellular death model, dead cells by LDH assay", "assay_type": "cell-based, human", "conditions": "staurosporine + (150 nM), 24 h", "method": "SH-SY5Y cells were plated on a 96-well plate (70,000 cell/well in 100 μl DMEM low glucose 10% fetal bovine serum) for overnight culturing, from which the culture medium was removed with an aspirator. Then, DMEM without serum was added at 50 μl/well. […] 2 hours later, DMEM without serum containing 900 nM staurosporine was added at 20 μl/well. (Staurosporine to a final 150 nM concentration) (For a control, DMEM without serum alone was added.) 24 hours later, LDH activity was assayed by measuring the absorbance at 490 nm, using Cytotoxicity detection kit (Roche). […] An apparent correlation is observed with the results of viable cells as determined by the MTT assay in Example 9."}, "[4]": {"test_system": "GAL4-human PPARδ fusion protein", "assay": "GAL4 reporter gene assay in CV-1 cells, human PPARδ", "assay_type": "cell-based", "conditions": "third 'Human PPAR-•' line (taken as δ), pG5luc reporter"}, "PPARδ": {"target": "T1, PPARδ (Homo sapiens, UniProt Q03181)", "T1 sequence (Q03181 1-441)": "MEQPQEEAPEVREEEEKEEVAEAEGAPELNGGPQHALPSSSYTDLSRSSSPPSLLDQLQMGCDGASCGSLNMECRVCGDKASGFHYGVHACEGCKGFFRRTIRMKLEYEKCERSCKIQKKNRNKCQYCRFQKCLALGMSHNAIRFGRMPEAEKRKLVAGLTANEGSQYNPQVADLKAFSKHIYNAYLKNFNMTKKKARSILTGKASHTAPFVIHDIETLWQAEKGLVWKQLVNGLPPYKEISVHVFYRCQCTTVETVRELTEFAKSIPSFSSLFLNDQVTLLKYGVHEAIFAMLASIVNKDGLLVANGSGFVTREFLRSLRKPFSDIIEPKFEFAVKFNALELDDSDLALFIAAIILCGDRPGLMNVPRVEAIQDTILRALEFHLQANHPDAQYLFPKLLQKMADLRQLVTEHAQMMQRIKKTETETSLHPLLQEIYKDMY", "conditions": "FEBS Letters 473 (2000) 333-336; read-out: affinity to PPARδ (Ki); cited from earlier work"}, "[5]": {"test_system": "GAL4-murine PPARα fusion protein", "assay": "GAL4 reporter gene assay in CV-1 cells, murine PPARα", "assay_type": "cell-based", "conditions": "first 'Murine PPAR-•' line (taken as α), pG5luc reporter"}, "[6]": {"test_system": "GAL4-murine PPARδ fusion protein", "conditions": "third 'Murine PPAR-•' line (taken as δ); CV-1 cells, pG5luc reporter"}, "PPARγ": {"target": "T2, PPARγ (Homo sapiens, UniProt P37231)", "T2 sequence (P37231 1-505)": "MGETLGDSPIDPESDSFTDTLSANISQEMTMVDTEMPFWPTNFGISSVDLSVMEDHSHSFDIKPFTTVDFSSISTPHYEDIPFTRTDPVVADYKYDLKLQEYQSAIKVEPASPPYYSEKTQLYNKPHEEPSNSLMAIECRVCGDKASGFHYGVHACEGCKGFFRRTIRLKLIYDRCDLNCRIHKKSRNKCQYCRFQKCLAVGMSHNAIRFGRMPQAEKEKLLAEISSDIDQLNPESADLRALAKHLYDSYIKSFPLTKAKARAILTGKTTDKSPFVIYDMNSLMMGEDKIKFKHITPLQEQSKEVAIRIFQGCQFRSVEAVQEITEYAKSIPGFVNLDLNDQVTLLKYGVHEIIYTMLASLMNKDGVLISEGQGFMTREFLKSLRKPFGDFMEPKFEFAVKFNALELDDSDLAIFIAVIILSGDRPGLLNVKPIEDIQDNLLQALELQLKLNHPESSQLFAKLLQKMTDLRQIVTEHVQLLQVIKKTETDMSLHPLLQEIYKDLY", "conditions": "FEBS Letters 473 (2000) 333-336; read-out: affinity to PPARγ (Ki); cited from earlier work"}, "[7]": {"test_system": "GAL4-murine PPARγ fusion protein", "assay": "GAL4 reporter gene assay in CV-1 cells, murine PPARγ", "assay_type": "cell-based", "conditions": "second 'Murine PPAR-•' line (taken as γ), pG5luc reporter"}, "[8]": {"test_system": "GAL4-human PPARγ fusion protein", "assay": "GAL4 reporter gene assay in CV-1 cells, human PPARγ", "assay_type": "cell-based", "conditions": "second 'Human PPAR-•' line (taken as γ), pG5luc reporter"}, "[9]": {"test_system": "GAL4-human PPARα fusion protein", "assay": "GAL4 reporter gene assay in CV-1 cells, human PPARα", "assay_type": "cell-based", "conditions": "first 'Human PPAR-•' line (taken as α), pG5luc reporter"}}, "note": "“Also recorded” adds a separate entry of the source."}
{"smiles": "Cc1cc(SCc2sc(-c3ccc(C(F)(F)F)cc3)nc2C)ccc1OCC(=O)O", "note": "[GW501516]", "values": [{"measurement": "Lesions with cerebral infarction (area in % of damaged site in the 6 sections), Cortex", "setting": "[1]; 24 μg/head/day i.c.v.", "result": "9.39 ± 1.56", "unit": "%"}, {"measurement": "Lesions with cerebral infarction (area in % of damaged site in the 6 sections), Subcortex", "setting": "[1]; 24 μg/head/day i.c.v.", "result": "9.35 ± 0.65", "unit": "%"}, {"measurement": "Lesions with cerebral infarction (area in % of damaged site in the 6 sections), Total", "setting": "[1]; 24 μg/head/day i.c.v.", "result": "18.74 ± 2.00", "unit": "%"}, {"measurement": "Lesions with cerebral infarction (area in % of damaged site in the 6 sections), Cortex", "setting": "[1]; 240 μg/head/day i.c.v.", "result": "7.26 ± 1.67", "unit": "%"}, {"measurement": "Lesions with cerebral infarction (area in % of damaged site in the 6 sections), Subcortex", "setting": "[1]; 240 μg/head/day i.c.v.", "result": "7.88 ± 0.79", "unit": "%"}, {"measurement": "Lesions with cerebral infarction (area in % of damaged site in the 6 sections), Total", "setting": "[1]; 240 μg/head/day i.c.v.", "result": "15.14 ± 2.20", "unit": "%"}, {"measurement": "action to reduce cerebral infarction (in words)", "setting": "[1]", "result": "potent actions to reduce cerebral infarction; also recorded: far greater action of reducing cerebral damages"}, {"measurement": "suppression of thapsigargin-induced cellular death (in words)", "setting": "SH-SY5Y cells [2]", "result": "suppressed cellular death induced by thapsigargin (TG) in a concentration-dependent manner"}, {"measurement": "MTT assay A490", "setting": "SH-SY5Y cells [2]; compound 0.1 μM", "result": "0.2978 ± 0.0096"}, {"measurement": "MTT assay A490", "setting": "SH-SY5Y cells [2]; compound 1 μM", "result": "0.3150 ± 0.0135"}, {"measurement": "MTT assay A490", "setting": "SH-SY5Y cells [2]; compound 10 μM", "result": "0.3478 ± 0.0110"}, {"measurement": "MTT assay A490", "setting": "SH-SY5Y cells [2]; compound 100 μM", "result": "0.2950 ± 0.0033"}, {"measurement": "cellular toxicity (in words)", "setting": "SH-SY5Y cells [2]; concentration of 100 μM, thapsigargin model", "result": "cellular toxicity of GW501516 can be observed"}, {"measurement": "LDH release A490", "setting": "SH-SY5Y cells [3]; compound 0.1 μM", "result": "0.5430 ± 0.0264"}, {"measurement": "LDH release A490", "setting": "SH-SY5Y cells [3]; compound 1 μM", "result": "0.5201 ± 0.0313"}, {"measurement": "LDH release A490", "setting": "SH-SY5Y cells [3]; compound 10 μM", "result": "0.4025 ± 0.0188"}]}
{"smiles": "CCCc1c(OCCCOc2ccc(OCC(=O)O)cc2)ccc(C(C)=O)c1O", "note": "[L-165041, 4-[3-[2-propyl-3-hydroxy-4-acetyl]phenoxy]propyloxyphenoxy acetic acid]", "values": [{"measurement": "Concentration for action exertion", "setting": "[4]", "result": 0.1, "unit": "M"}, {"measurement": "Ki", "setting": "PPARδ", "result": 6, "unit": "nM"}, {"measurement": "Concentration for action exertion", "setting": "[5]", "result": ">100", "unit": "M"}, {"measurement": "Concentration for action exertion", "setting": "[6]", "result": 0.1, "unit": "M"}, {"measurement": "Ki", "setting": "PPARγ", "result": 730, "unit": "nM"}, {"measurement": "Lesions with cerebral infarction (area in % of damaged site in the 6 sections), Cortex", "setting": "[1]; 24 μg/head/day i.c.v.", "result": "12.70 ± 0.63", "unit": "%"}, {"measurement": "Lesions with cerebral infarction (area in % of damaged site in the 6 sections), Subcortex", "setting": "[1]; 24 μg/head/day i.c.v.", "result": "9.98 ± 0.30", "unit": "%"}, {"measurement": "Lesions with cerebral infarction (area in % of damaged site in the 6 sections), Total", "setting": "[1]; 24 μg/head/day i.c.v.", "result": "22.68 ± 0.83", "unit": "%"}, {"measurement": "Lesions with cerebral infarction (area in % of damaged site in the 6 sections), Cortex", "setting": "[1]; 240 μg/head/day i.c.v.", "result": "10.22 ± 1.29", "unit": "%"}, {"measurement": "Lesions with cerebral infarction (area in % of damaged site in the 6 sections), Subcortex", "setting": "[1]; 240 μg/head/day i.c.v.", "result": "9.19 ± 0.85", "unit": "%"}, {"measurement": "Lesions with cerebral infarction (area in % of damaged site in the 6 sections), Total", "setting": "[1]; 240 μg/head/day i.c.v.", "result": "19.40 ± 1.98", "unit": "%"}, {"measurement": "Reduction ratio of cerebral cortex damage", "setting": "[1]; i.c.v. 24 •g/head/day", "result": 9, "unit": "%"}, {"measurement": "Reduction ratio of cerebral cortex damage", "setting": "[1]; i.c.v. 240 •g/head/day", "result": 27, "unit": "%"}, {"measurement": "action to reduce cerebral infarction (in words)", "setting": "[1]", "result": "potent actions to reduce cerebral infarction"}, {"measurement": "Concentration for action exertion", "setting": "[7]", "result": 10, "unit": "M"}, {"measurement": "suppression of thapsigargin-induced cellular death (in words)", "setting": "SH-SY5Y cells [2]", "result": "suppressed cellular death induced by thapsigargin (TG) in a concentration-dependent manner"}, {"measurement": "MTT assay A490", "setting": "SH-SY5Y cells [2]; compound 0.1 μM", "result": "0.2176 ± 0.0036"}, {"measurement": "MTT assay A490", "setting": "SH-SY5Y cells [2]; compound 1 μM", "result": "0.2158 ± 0.0034"}, {"measurement": "MTT assay A490", "setting": "SH-SY5Y cells [2]; compound 10 μM", "result": "0.2436 ± 0.0015"}, {"measurement": "MTT assay A490", "setting": "SH-SY5Y cells [2]; compound 100 μM", "result": "0.4405 ± 0.0065"}, {"measurement": "LDH release A490", "setting": "SH-SY5Y cells [3]; compound 0.1 μM", "result": "0.5330 ± 0.0298"}, {"measurement": "LDH release A490", "setting": "SH-SY5Y cells [3]; compound 1 μM", "result": "0.5230 ± 0.0160"}, {"measurement": "LDH release A490", "setting": "SH-SY5Y cells [3]; compound 10 μM", "result": "0.5319 ± 0.0267"}, {"measurement": "Concentration for action exertion", "setting": "[8]", "result": 10, "unit": "M"}, {"measurement": "Concentration for action exertion", "setting": "[9]", "result": 10, "unit": "M"}]}
